Values after ≈ are worked out from the molar mass of the structure shown.
Experiments:
HCT-116 = assay: Cytotoxicity against human HCT-116 cells measured after 72 hrs by MTT assay; type: functional, cell-based; conditions: HCT-116, 72 h
Staphylococcus aureus [1] = assay: Antibacterial activity against Staphylococcus aureus ATCC 29213 incubated for 16 to 18 hrs by CLSI based broth dilution method; type: functional; conditions: time 16-18 hrs
[2] = tested on: Staphylococcus epidermidis; assay: Antibacterial activity against Staphylococcus epidermidis ATCC 12228 incubated for 16 to 18 hrs by CLSI based broth dilution method; type: functional; conditions: time 16-18 hrs
MCF7 = assay: Cytotoxicity against human MCF7 cells measured after 72 hrs by MTT assay; type: functional, cell-based; conditions: MCF7, 72 h
Staphylococcus aureus [3] = assay: Antibacterial activity against methicillin-resistant Staphylococcus aureus ATCC 43300 incubated for 16 to 18 hrs by CLSI based broth dilution method; type: functional; conditions: time 16-18 hrs
Enterococcus faecalis = assay: Antibacterial activity against Enterococcus faecalis ATCC 29212 incubated for 16 to 18 hrs by CLSI based broth dilution method; type: functional; conditions: time 16-18 hrs
HGC-27 = assay: Cytotoxicity against human HGC-27 cells measured after 72 hrs by MTT assay; type: functional, cell-based; conditions: HGC-27, 72 h
[4] = biological target: T1, Dihydrofolate reductase (Homo sapiens) (UniProt P00374); assay: Inhibition of human DHFR at 1 uM incubated for 10 mins in presence of NADPH by colorimetry based analysis relative to control
T1 sequence (whole entry): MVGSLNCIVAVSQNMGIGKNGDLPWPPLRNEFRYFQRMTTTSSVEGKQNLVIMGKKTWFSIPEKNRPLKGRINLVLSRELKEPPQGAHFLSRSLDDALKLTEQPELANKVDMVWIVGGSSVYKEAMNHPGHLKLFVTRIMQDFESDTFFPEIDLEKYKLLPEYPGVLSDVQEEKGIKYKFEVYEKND

Escherichia coli = assay: Antibacterial activity against Escherichia coli ATCC 25922 incubated for 16 to 18 hrs by CLSI based broth dilution method; type: functional; conditions: time 16-18 hrs
HepG2 = assay: Cytotoxicity against human HepG2 cells measured after 72 hrs by MTT assay; type: functional, cell-based; conditions: HepG2, 72 h
Acinetobacter baumannii = assay: Antibacterial activity against Acinetobacter baumannii ATCC 19606 incubated for 16 to 18 hrs by CLSI based broth dilution method; type: functional; conditions: time 16-18 hrs

Structure (SMILES) | IC50 (HCT-116) [nM] | MIC (Staphylococcus aureus [1]) [µg/mL] | MIC [2] [µg/mL] | IC50 (MCF7) [nM] | MIC (Staphylococcus aureus [3]) [µg/mL] | MIC (Enterococcus faecalis) [µg/mL] | IC50 (HGC-27) [nM] | inhibition [4] [%] | MIC (Escherichia coli) [µg/mL] | IC50 (HepG2) [nM] | MIC (Acinetobacter baumannii) [µg/mL]
COC(=O)c1ccc2nc(Cn3ccc4c5c(N)nc(N)nc5ccc43)ccc2c1 | 210 | 0.5 (≈ 1.25 µM) | 0.25 (≈ 0.627 µM) | 850 | 0.25 (≈ 0.627 µM) | 0.25 (≈ 0.627 µM) | < 100 | 64.5 | 2 (≈ 5.02 µM) | 430 | –
Nc1nc(N)c2c(ccc3c2ccn3Cc2ccc(Br)c3ccccc23)n1 | < 100 | 0.25 (≈ 0.598 µM) | ≤ 0.004 | 190 | 0.125 (≈ 0.299 µM) | 0.125 (≈ 0.299 µM) | < 100 | 74.1 | 1 (≈ 2.39 µM) | < 100 | –
Nc1nc(N)c2c(ccc3c2ccn3Cc2cccc3sc(N)nc23)n1 | 5810 | 0.25 (≈ 0.692 µM) | ≤ 0.004 | 790 | 0.125 (≈ 0.346 µM) | 0.25 (≈ 0.692 µM) | 1770 | 77.4 | 0.5 (≈ 1.38 µM) | 260 | 32 (≈ 88.5 µM)
Cc1cc2c3c(N)nc(N)nc3ccc2n1Cc1ccc(-c2ccccc2)cc1 | 2260 | 4 (≈ 10.5 µM) | ≤ 0.004 | 1470 | 4 (≈ 10.5 µM) | 4 (≈ 10.5 µM) | 7060 | – | > 8 | 1310 | > 32
Nc1nc(N)c2c(ccc3c2ccn3Cc2ccc3ccccc3c2)n1 | 50 | 0.5 (≈ 1.47 µM) | 0.5 (≈ 1.47 µM) | > 1000 | 0.25 (≈ 0.737 µM) | 0.5 (≈ 1.47 µM) | 29 | 70.9 | 0.5 (≈ 1.47 µM) | 110 | –
COC(=O)c1ccc(Cn2ccc3c4c(N)nc(N)nc4ccc32)c2ccccc12 | 180 | 0.004 (≈ 0.0101 µM) | ≤ 0.004 | 1320 | 0.004 (≈ 0.0101 µM) | 0.016 (≈ 0.0403 µM) | < 100 | 83.9 | 2 (≈ 5.03 µM) | 190 | –
Nc1nc(N)c2c(ccc3c2cc(-c2ccccc2)n3Cc2nc3ccccc3s2)n1 | > 1000 | > 128 | 64 (≈ 151 µM) | > 1000 | > 128 | 32 (≈ 75.7 µM) | > 1000 | 17.3 | > 128 | > 1000 | > 128
Cc1cc2c3c(N)nc(N)nc3ccc2n1Cc1cccc2scnc12 | > 10000 | 1 (≈ 2.77 µM) | ≤ 0.004 | 450 | 1 (≈ 2.77 µM) | 2 (≈ 5.55 µM) | 4500 | 99.4 | > 8 | 250 | 8 (≈ 22.2 µM)
Nc1nc(N)c2c(ccc3c2ccn3Cc2ccc3cc(C(=O)O)ccc3n2)n1 | 9570 | 32 (≈ 83.2 µM) | 0.25 (≈ 0.65 µM) | 9740 | 32 (≈ 83.2 µM) | > 8 | 4210 | 77.4 | > 128 | 4650 | –
COc1ccc2nc(Cn3ccc4c5c(N)nc(N)nc5ccc43)sc2c1 | 4420 | 0.5 (≈ 1.33 µM) | ≤ 0.004 | 1190 | 0.25 (≈ 0.664 µM) | 0.5 (≈ 1.33 µM) | 820 | 38.7 | 2 (≈ 5.31 µM) | 2710 | –
Nc1nc(N)c2c(ccc3c2ccn3Cc2cc3ccccc3o2)n1 | 4800 | 0.25 (≈ 0.759 µM) | ≤ 0.004 | 1000 | 0.25 (≈ 0.759 µM) | 0.25 (≈ 0.759 µM) | 590 | 29.1 | 0.25 (≈ 0.759 µM) | 1070 | 32 (≈ 97.2 µM)
Nc1nc(N)c2c(ccc3c2ccn3Cc2ccc(C(=O)O)c3ccccc23)n1 | > 10000 | 2 (≈ 5.22 µM) | 0.5 (≈ 1.3 µM) | > 10000 | 2 (≈ 5.22 µM) | 2 (≈ 5.22 µM) | > 10000 | 93.5 | > 8 | > 10000 | > 32
Nc1nc(N)c2c(ccc3c2ccn3Cc2ccc3sccc3c2)n1 | 8800 | 0.06 (≈ 0.174 µM) | ≤ 0.004 | 510 | 0.03 (≈ 0.0868 µM) | 0.06 (≈ 0.174 µM) | 560 | 87 | 0.25 (≈ 0.724 µM) | 530 | 4 (≈ 11.6 µM)
